# Test results as given in patent publication US11911361B2, “Stable cannabinoid formulations” (priority 2014, dated 2024).
# Columns and labels:
# [1] = test system: paclitaxel-induced mechanical sensitivity; assay: Paclitaxel induced neuropathic pain study (Von Frey mechanical sensitivity); format: in vivo, mice
# [2] = test system: oxaliplatin-induced peripheral neuropathy; assay: Oxaliplatin induced neuropathic pain study; format: in vivo; details: CBD 15 minutes prior to single oxaliplatin 6 mg/kg
# Procedure: (§1) A study was designed to test the efficacy of CBD in preventing oxaliplatin- or vincristine-induced peripheral neuropathy. Two doses of CBD and vehicle were tested against each of these first line chemotherapeutic agents. Oxaliplatin was administered once at a dose of 6 mg/kg. CBD was administered 15 minutes prior to the single oxaliplatin injection. Vincristine was administered once daily for 7 days at a dose of 0.1 mg/kg. CBD was administered 15 minutes prior to each vincristine injection. For each treatment group the final sample size was 8 animals.
# [3] = test system: vincristine-induced peripheral neuropathy; assay: Vincristine induced neuropathic pain study; format: in vivo; details: CBD 15 minutes prior to each vincristine 0.1 mg/kg injection
# Procedure: as §1
# [4] = test system: minimal muscular or neurological impairment; assay: Minimal motor impairment toxicity test (TOX), rats; format: in vivo; details: Anticonvulsant Screening
# U251 cells = assay: Orthotopic mouse model of glioblastoma multiforme, U251 cells; format: in vivo, female athymic nu/nu mice
# Procedure: All mice were injected intraperitoneally.
# Survival between groups was compared using a Kaplan-Meier analysis and long-rank Mantel-Cox test or The Gehan-Breslow-Wilcoxon test. P values <0.05 defined statistical significance.
# [5] = Long-term safety study in pediatric patients with refractory epilepsy; details: human, in vivo, oral, 48 week
# Excerpt: This was a long-term, open-label, 48-week study for pediatric subjects aged 1 year to 17 years with refractory epilepsy.
# The study included 5 subjects aged 1 to <2 years (infants); 9 subjects aged 2 to <12 years (children), with ≥3 subjects under the age of 6 years; 6 subjects aged 12 to ≤17 years (adolescents), with ≥3 subjects under the age of 16 years.
# clinical = details: human, in vivo, po, 20 mg/kg, single 20 mg/kg oral dose of cannabidiol solution, mean; for CL/F / Vd/F: cannabidiol; for half-life: t1/2, cannabidiol
# Procedure: An open label, randomized, single-dose, two-period, two-way crossover food-effect study was conducted on healthy subjects. […] Twenty-four (24) subjects were enrolled in the study and each were subjected to the fasted and fed treatment arms in separate periods followed by a 7-day wash-out period. For pharmacokinetic analysis, nominal time and default lambda-z selections were used. All below quantifiable limit values were set to zero and all subjects were included in the analysis.
# Data from 13 subjects from the fasted treatment and 24 subject from the fed treatment were included in the pharmacokinetic and statistical analyses.
# [6] = test system: maximal electroshock-induced seizures; assay: Maximal electroshock test (MES), rats; details: Anticonvulsant Screening
# [7] = test system: Metrazol-induced clonic seizure; assay: Subcutaneous Metrazol (sc Met) seizure test; details: for Sc MET N/F (animals protected/tested): mice; for ED50: Mus musculus, sc
# [8] = test system: psychomotor seizure induced by 6 Hz stimulation; assay: Minimal clonic seizure (6 Hz) psychomotor seizure test; details: intraperitoneal; for 6 HZ N/F (animals protected/tested): Anticonvulsant Screening, mice; for 6 Hz N/F (animals protected/tested) / 6 Hz N/F: CF1 mice; for ED50: Mus musculus, ip; for 6 Hz N/F: Time to Peak Effect (Table 54)
# [9] = Minimal motor impairment (rotorod) toxicity test (TOX), mice; details: in vivo
# U87 cells = assay: Orthotopic mouse model of glioblastoma multiforme, U87 cells
# [10] = dose 30, 1.0 h, ethanol:polyethoxylated castor oil:PBS
# [11] = dose 30, 1.0 h, methylcellulose
# [12] = dose 30, 2.0 h, ethanol:polyethoxylated castor oil:PBS
# [13] = dose 30, 2.0 h, methylcellulose
# [14] = dose 30, 4.0 h, ethanol:polyethoxylated castor oil:PBS
# [15] = dose 30, 4.0 h, methylcellulose
# [16] = dose 100, 1.0 h, ethanol:polyethoxylated castor oil:PBS
# [17] = dose 100, 1.0 h, methylcellulose
# [18] = dose 100, 2.0 h, ethanol:polyethoxylated castor oil:PBS
# [19] = dose 100, 2.0 h, methylcellulose
# [20] = dose 100, 4.0 h, ethanol:polyethoxylated castor oil:PBS
# [21] = dose 100, 4.0 h, methylcellulose
smiles,measurement,setting,value
"C=C(C)[C@@H]1CCC(C)=C[C@H]1c1c(O)cc(CCCCC)cc1O [cannabidiol, (−)-trans-2-p-mentha-1,8-dien-3-yl-5-pentylresorcinol]",alleviating chemotherapy-induced neuropathic pain (in words),"[1]; Example 7, IP, Day 21",most effective level of alleviating chemotherapy-induced neuropathic pain
same,minimal effective dose,[1]; IP,1.25 mg/kg
same,effect on paclitaxel-induced mechanical sensitivity (in words),"[1]; pretreatment 15 minutes prior to each paclitaxel injection, IP",significantly attenuated
same,effect on oxaliplatin-induced mechanical sensitivity (in words),[2],attenuated
same,effect on vincristine-induced mechanical sensitivity (in words),[3],no main effect of treatment
same,TOX N/F (minimal motor impairment),[4]; [10],0/4
same,TOX N/F (minimal motor impairment),[4]; [11],0/4
same,TOX N/F (minimal motor impairment),[4]; [12],0/4
same,TOX N/F (minimal motor impairment),[4]; [13],0/4
same,TOX N/F (minimal motor impairment),[4]; [14],0/4
same,TOX N/F (minimal motor impairment),[4]; [15],0/4
same,TOX N/F (minimal motor impairment),[4]; [16],0/4
same,TOX N/F (minimal motor impairment),[4]; [17],0/4
same,TOX N/F (minimal motor impairment),[4]; [18],0/4
same,TOX N/F (minimal motor impairment),[4]; [19],0/4
same,TOX N/F (minimal motor impairment),[4]; [20],0/4
same,TOX N/F (minimal motor impairment),[4]; [21],0/4
same,effect on antitumor activity of temozolomide (in words),U251 cells; 15 mg/kg cannabidiol with temozolomide 1.5 mg/kg,enhanced the antitumor activity of temozolomide
same,survival (in words),U251 cells; vehicle outlier included,did not increase survival
same,subjects with somnolence related to the CBD,[5],7.7%
same,subjects with weight increase related to the CBD,[5],7.7%
same,CL/F,clinical; fasted,1140 mL/min/kg
same,CL/F,clinical; fed,36.2 mL/min/kg
same,Vd/F,clinical; fasted,2680 L/kg
same,Vd/F,clinical; fed,133 L/kg
same,half-life,clinical; fasted,27.9 h
same,half-life,clinical; fed,42.3 h
same,MES N/F (animals protected/tested),[6]; [10],0/4
same,MES N/F (animals protected/tested),[6]; [11],0/4
same,MES N/F (animals protected/tested),[6]; [12],0/4
same,MES N/F (animals protected/tested),[6]; [13],0/4
same,MES N/F (animals protected/tested),[6]; [14],0/4
same,MES N/F (animals protected/tested),[6]; [15],0/4
same,MES N/F (animals protected/tested),[6]; [16],1/4
same,MES N/F (animals protected/tested),[6]; [17],0/4
same,MES N/F (animals protected/tested),[6]; [18],0/4
same,MES N/F (animals protected/tested),[6]; [19],0/4
same,MES N/F (animals protected/tested),[6]; [20],0/4
same,MES N/F (animals protected/tested),[6]; [21],0/4
same,Sc MET N/F (animals protected/tested),"[7]; ED50 Biological Response (Table 57), 150 mg/kg, 2 h, methylcellulose",1/8
same,Sc MET N/F (animals protected/tested),"[7]; ED50 Biological Response (Table 57), 300 mg/kg, 2 h, methylcellulose",5/8
same,Sc MET N/F (animals protected/tested),"[7]; ED50 Biological Response (Table 57), 360 mg/kg, 2 h, methylcellulose",7/8
same,Sc MET N/F (animals protected/tested),"[7]; ED50 Biological Response (Table 59), 120 mg/kg, 2 h, ethanol:polyethoxylated castor oil:PBS",0/8
same,Sc MET N/F (animals protected/tested),"[7]; ED50 Biological Response (Table 59), 160 mg/kg, 2 h, ethanol:polyethoxylated castor oil:PBS",2/8
same,Sc MET N/F (animals protected/tested),"[7]; ED50 Biological Response (Table 59), 220 mg/kg, 2 h, ethanol:polyethoxylated castor oil:PBS",5/8
same,Sc MET N/F (animals protected/tested),"[7]; ED50 Biological Response (Table 59), 260 mg/kg, 2 h, ethanol:polyethoxylated castor oil:PBS",7/8
same,ED50,[7]; 1:1:18 ethanol:polyethoxlated castor oil:PBS solvent,199 mg/kg
same,ED50,[7]; methylcellulose solvent,241 mg/kg
same,Sc MET N/F (animals protected/tested),"[7]; Tables 57/58, 200 mg/kg, 2 h, methylcellulose",3/8
same,Sc MET N/F (animals protected/tested),"[7]; Time to Peak Effect (Table 58), 200 mg/kg, 0.25 h, methylcellulose",0/4
same,Sc MET N/F (animals protected/tested),"[7]; Time to Peak Effect (Table 58), 200 mg/kg, 0.5 h, methylcellulose",0/4
same,Sc MET N/F (animals protected/tested),"[7]; Time to Peak Effect (Table 58), 200 mg/kg, 1 h, methylcellulose",2/8
same,6 HZ N/F (animals protected/tested),"[8]; 10 mg/kg, 0.5 h, ethanol:polyethoxylated castor oil:PBS",0/4
same,6 HZ N/F (animals protected/tested),"[8]; 10 mg/kg, 0.5 h, methylcellulose",0/4
same,6 HZ N/F (animals protected/tested),"[8]; 10 mg/kg, 1.0 h, ethanol:polyethoxylated castor oil:PBS",0/4
same,6 HZ N/F (animals protected/tested),"[8]; 10 mg/kg, 1.0 h, methylcellulose",0/4
same,6 HZ N/F (animals protected/tested),"[8]; 10 mg/kg, 2.0 h, ethanol:polyethoxylated castor oil:PBS",0/4
same,6 HZ N/F (animals protected/tested),"[8]; 10 mg/kg, 2.0 h, methylcellulose",0/4
same,6 HZ N/F (animals protected/tested),"[8]; 30 mg/kg, 0.5 h, ethanol:polyethoxylated castor oil:PBS",0/4
same,6 HZ N/F (animals protected/tested),"[8]; 30 mg/kg, 0.5 h, methylcellulose",0/4
same,6 HZ N/F (animals protected/tested),"[8]; 30 mg/kg, 1.0 h, ethanol:polyethoxylated castor oil:PBS",0/4
same,6 HZ N/F (animals protected/tested),"[8]; 30 mg/kg, 1.0 h, methylcellulose",0/4
same,6 HZ N/F (animals protected/tested),"[8]; 30 mg/kg, 2.0 h, ethanol:polyethoxylated castor oil:PBS",0/4
same,6 HZ N/F (animals protected/tested),"[8]; 30 mg/kg, 2.0 h, methylcellulose",0/4
same,6 HZ N/F (animals protected/tested),"[8]; 100 mg/kg, 0.5 h, ethanol:polyethoxylated castor oil:PBS",2/4
same,6 HZ N/F (animals protected/tested),"[8]; 100 mg/kg, 0.5 h, methylcellulose",1/4
same,6 HZ N/F (animals protected/tested),"[8]; 100 mg/kg, 1.0 h, ethanol:polyethoxylated castor oil:PBS",0/4
same,6 HZ N/F (animals protected/tested),"[8]; 100 mg/kg, 1.0 h, methylcellulose",0/4
same,6 HZ N/F (animals protected/tested),"[8]; 100 mg/kg, 2.0 h, ethanol:polyethoxylated castor oil:PBS",0/4
same,6 HZ N/F (animals protected/tested),"[8]; 100 mg/kg, 2.0 h, methylcellulose",0/4
same,6 Hz N/F (animals protected/tested),"[8]; ED50 Biological Response (Table 53), 30 mg/kg, 0.5 h, methylcellulose",0/8
same,6 Hz N/F (animals protected/tested),"[8]; ED50 Biological Response (Table 53), 65 mg/kg, 0.5 h, methylcellulose",5/8
same,6 Hz N/F (animals protected/tested),"[8]; ED50 Biological Response (Table 53), 130 mg/kg, 0.5 h, methylcellulose",5/8
same,6 Hz N/F (animals protected/tested),"[8]; ED50 Biological Response (Table 53), 160 mg/kg, 0.5 h, methylcellulose",8/16
same,6 Hz N/F (animals protected/tested),"[8]; ED50 Biological Response (Table 53), 190 mg/kg, 0.5 h, methylcellulose",7/8
same,6 Hz N/F (animals protected/tested),"[8]; ED50 Biological Response (Table 55), 50 mg/kg, 0.5 h, ethanol:polyethoxylated castor oil:PBS",1/8
same,6 Hz N/F (animals protected/tested),"[8]; ED50 Biological Response (Table 55), 100 mg/kg, 0.5 h, ethanol:polyethoxylated castor oil:PBS",1/8
same,6 Hz N/F (animals protected/tested),"[8]; ED50 Biological Response (Table 55), 130 mg/kg, 0.5 h, ethanol:polyethoxylated castor oil:PBS",4/8
same,6 Hz N/F (animals protected/tested),"[8]; ED50 Biological Response (Table 55), 170 mg/kg, 0.5 h, ethanol:polyethoxylated castor oil:PBS",6/8
same,6 Hz N/F (animals protected/tested),"[8]; ED50 Biological Response (Table 55), 200 mg/kg, 0.5 h, ethanol:polyethoxylated castor oil:PBS",8/8
same,ED50,[8]; 1:1:18 ethanol:polyethoxylated castor oil:PBS solvent,122 mg/kg
same,ED50,[8]; methylcellulose solvent,104 mg/kg
same,6 Hz N/F,"[8]; 300 mg/kg, 0.25 h, methylcellulose",1/8
same,6 Hz N/F,"[8]; 300 mg/kg, 0.5 h, methylcellulose",0/8
same,6 Hz N/F,"[8]; 300 mg/kg, 1 h, methylcellulose",0/8
same,6 Hz N/F,"[8]; 300 mg/kg, 2 h, methylcellulose",0/8
same,6 Hz N/F,"[8]; 300 mg/kg, 4 h, methylcellulose",0/8
same,6 Hz N/F,"[8]; 300 mg/kg, 6 h, methylcellulose",0/8
same,6 Hz N/F,"[8]; 300 mg/kg, 24 h, methylcellulose",0/8
same,6 Hz N/F,"[8]; 500 mg/kg, 0.25 h, methylcellulose",1/8
same,6 Hz N/F,"[8]; 500 mg/kg, 0.5 h, methylcellulose",0/8
same,6 Hz N/F,"[8]; 500 mg/kg, 1 h, methylcellulose",0/8
same,6 Hz N/F,"[8]; 500 mg/kg, 2 h, methylcellulose",0/8
same,6 Hz N/F,"[8]; 500 mg/kg, 4 h, methylcellulose",0/8
same,6 Hz N/F,"[8]; 500 mg/kg, 6 h, methylcellulose",0/8
same,6 Hz N/F,"[8]; 500 mg/kg, 24 h, methylcellulose",2/8
same,TD50 at 2 h,"[9]; CF1, mouse, TD50, Example 12, 1:1:18 ethanol:polyethoxylated castor oil:PBS solvent",262 mg/kg
same,TD50 at 0.5 hours,"[9]; CF1, mouse, TD50, Example 12, methylcellulose solvent, 0.5 hours post administration",> 500 mg/kg
same,TD50 at 2 h,"[9]; mouse, TD50, Example 13, 1:1:18 ethanol:polyethoxlated castor oil:PBS solvent",267 mg/kg
same,TD50 at 2 h,"[9]; mouse, TD50, Example 13, methylcellulose solvent",> 500 mg/kg
same,glioblastoma multiforme progression (in words),"U87 cells; 15 mg/kg alone, intraperitoneal",did not inhibit glioblastoma multiforme progression
same,effect on antitumor activity of temozolomide (in words),"U87 cells; 15 mg/kg with temozolomide 2 mg/kg, intraperitoneal",enhanced the antitumor activity of suboptimal doses of temozolomide leading to a significant increase in survival
same,full regression of tumors,"U87 cells; mouse, in vivo",20%
